Data published in US6177438A, “Morphinan derivatives and pharmaceutical use thereof” (priority 1993, dated 2001).
Counter-ions that a name gives are not always drawn.

Assays:
[1] = test system: cultured nerve cells (cerebral cortex); conditions: 10 mM glutamic acid, 24 hours
κ receptor [2] = target: T1, κ receptor (Mus musculus, UniProt P33534); test: Opioid activity test using an extracted mouse vas deferens preparation, Ke with norBNI; parameters: species or system male ddy mouse; conditions: for Ke, norBNI: κ, norBNI added; for receptor selectivity of agonist (κ): in words
T1 construct: from tissue; host or cells: mouse (male ddy) vas deferens
T1 sequence (P33534 whole entry): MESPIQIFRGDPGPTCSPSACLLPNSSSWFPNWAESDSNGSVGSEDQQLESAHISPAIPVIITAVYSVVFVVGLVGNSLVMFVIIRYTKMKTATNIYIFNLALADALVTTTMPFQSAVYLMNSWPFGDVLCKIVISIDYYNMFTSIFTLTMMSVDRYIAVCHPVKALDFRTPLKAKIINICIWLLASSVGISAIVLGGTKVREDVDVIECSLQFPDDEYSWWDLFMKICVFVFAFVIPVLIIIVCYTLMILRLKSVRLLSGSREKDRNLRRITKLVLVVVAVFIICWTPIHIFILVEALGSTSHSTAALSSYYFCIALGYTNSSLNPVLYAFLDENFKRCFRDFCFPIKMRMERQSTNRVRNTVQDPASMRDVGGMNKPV

[3] = test system: guinea pig respiratory tract; test: Antitussive action using the guinea pig respiratory tract stimulation method; assay type: in vivo, male Hartley guinea pigs; conditions: for ED50: Cavia porcellus, sc; for No. of Animals in which Coughing was Suppressed/No. of Animals Tested: s.c.
Procedure: Evaluation of Antitussive Action Using the Guinea Pig Respiratory Tract Stimulation Method
Male Hartley guinea pigs having body weights of 330-380 g were used in this test in groups of 5 animals each. The animals were immobilized in the supine position under mild anesthesia by intraperitoneal administration of 15 mg/kg of sodium pentobarbital. An incision was made in the necks of the animals to expose the respiratory tract. A small hole was opened in the exposed respiratory tract, and stimulating hairs were inserted to a depth of roughly 3 cm and at an angle of 30 degrees to the respiratory tract through the opened hole to provide a stimulus to the inner wall of the respiratory tract. The animals were then examined for the presence of coughing. […] The test drug was administered subcutaneously, and stimuli were provided two times each 15, 30, 60 and 120 minutes after administration.

[4] = test system: acetic acid-induced writhing in ddy mice; test: animal or person; assay type: in vivo, 5 week old ddy mice; conditions: Mus musculus, sc, s.c. 15 minutes before acetic acid, read-out: ED50
Procedure: 5 week old ddy mice were used in this test. After intraperitoneal administration of 0.1 ml of 0.6% aqueous acetic acid per 10 g of body weight, the number of writhing reactions that occurred in 10 minutes starting 10 minutes after administration was evaluated for the indicator. The test drug was administered subcutaneously into the backs of the animals 15 minutes before administration of acetic acid.

[5] = test system: cultured nerve cells (cerebral cortex); test: cells; conditions: Rattus norvegicus, Cerebral cortex neuron, 24 h, read-out: ED50 (protection against glutamic acid toxicity)
[6] = Diuretic action (urine output for 5 hours after physiological saline loading in rats); assay type: in vivo, male Wistar rats; conditions: Rattus norvegicus, sc, 5 hours after saline 20 ml/kg p.o.; for ED (200% urine output): dose giving urine output of 200 (non-dosed group = 100); for ED (500% urine output): dose giving urine output of 500 (non-dosed group = 100)
Outline: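 Male Wistar rats (7-8 weeks), water withheld 1 h, bladder emptied, drug given subcutaneously; 30 min later 20 ml/kg saline orally. Urine collected 5 h after saline loading in metabolic cages; ED200 and ED500 are doses giving urine output of 200 and 500 relative to non-dosed group at 100.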

[7] = test system: extracted mouse vas deferens preparation; test: Opioid activity test using an extracted mouse vas deferens preparation (suppression of electrically induced contractions); parameters: species or system male ddy mouse; conditions: electrical stimulus 0.1 Hz, 37° C.
Outline: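 Male ddY mouse vas deferens in Krebs-Henseleit at 37° C, 5% CO2/95% O2, field-stimulated at 0.1 Hz, 5.0 ms; isometric contractions recorded. After adding naloxone, NTI or norBNI, test compound was added cumulatively after ~20 min; Ke derived from the difference in agonist efficacies.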

[8] = test system: nerve cells in the region of the hippocampus CA1; test: Delayed neuronal death protective action (gerbil transient ischemia model, hippocampus CA1 nerve cell count); assay type: in vivo, gerbils; conditions: s.c.; for No. of Residual Nerve Cells: 1 week after ligation; for Suppression of defluxion of brain nerve cells caused by ischemia / cerebro-neuroprotective activity (in words): gerbils
Procedure: Those compounds that provide protection from and suppress delayed neuronal death described in Example 238 are considered to be promising as preventive and therapeutic agents for ischemic brain disorders, brain nerve cell disorders and dementia, which are problems that the present invention is attempting to solve. The pharmacological activity of the compounds of the present invention was evaluated in the manner below using gerbils for the animal model.
A midline incision was made in gerbils having body weights of 50-70 g under ether anesthesia. Blood flow through the carotid arteries on both sides was interrupted to create an ischemic state by ligating the vessels for 5 minutes. The test compound was administered subcutaneously either 30 minutes or 1 hour prior to ligation ischemia, and the rectal temperature of the animals was controlled to 37±2° C. using a heating pad or heater starting 5 minutes before to 30 minutes after ligation ischemia. 1 week after ligation, 4% neutral buffered formalin was perfused from the heart throughout the body followed by extraction of the brain. After post-fixing the extracted brain in the same solution, the tissue was prepared into sections after embedding in paraffin. The sections were stained with hematoxylin and eosin stain, and the number of nerve cells in the region of the hippocampus CA1 over a width of 1 mm to the left and right was counted. The total number of nerve cells on the right and left sides was then used for evaluation.

δ receptor = target: T2, δ receptor (Mus musculus, UniProt P32300); parameters: species or system male ddy mouse; conditions: mouse vas deferens, δ, NTI added
T2 construct: The vas deferens extracted from the animal was suspended in a Magnus tube; from tissue; host or cells: mouse (male ddy) vas deferens
T2 sequence (P32300 whole entry): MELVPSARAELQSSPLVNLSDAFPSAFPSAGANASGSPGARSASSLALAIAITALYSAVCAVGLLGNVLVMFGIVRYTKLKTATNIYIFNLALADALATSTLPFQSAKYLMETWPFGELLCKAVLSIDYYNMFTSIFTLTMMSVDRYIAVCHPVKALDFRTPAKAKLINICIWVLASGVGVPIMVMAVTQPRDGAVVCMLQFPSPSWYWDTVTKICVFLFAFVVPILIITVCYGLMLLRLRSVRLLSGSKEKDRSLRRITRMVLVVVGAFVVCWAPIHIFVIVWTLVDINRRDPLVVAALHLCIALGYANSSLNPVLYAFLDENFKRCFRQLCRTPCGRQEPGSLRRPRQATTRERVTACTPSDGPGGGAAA

μ receptor [9] = target: T3, μ receptor (Mus musculus, UniProt P42866); test: Opioid activity test using an extracted mouse vas deferens preparation, Ke with naloxone; parameters: species or system male ddy mouse; conditions: naloxone added
T3 construct: naloxone as mu antagonist (printed 'agonist')
T3 sequence (P42866 whole entry): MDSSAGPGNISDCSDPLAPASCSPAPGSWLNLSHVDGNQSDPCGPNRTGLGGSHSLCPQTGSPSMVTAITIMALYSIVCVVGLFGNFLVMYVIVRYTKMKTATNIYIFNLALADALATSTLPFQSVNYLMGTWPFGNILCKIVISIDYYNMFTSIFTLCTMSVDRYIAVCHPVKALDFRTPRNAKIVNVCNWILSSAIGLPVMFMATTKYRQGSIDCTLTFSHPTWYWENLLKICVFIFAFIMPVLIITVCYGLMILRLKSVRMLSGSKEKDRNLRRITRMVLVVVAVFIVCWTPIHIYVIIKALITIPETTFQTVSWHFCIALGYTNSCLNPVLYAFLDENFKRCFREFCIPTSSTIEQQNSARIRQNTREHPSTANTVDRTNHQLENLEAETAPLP

κ receptor [10] = target: T4, κ receptor (Cavia porcellus, UniProt P41144); test: Opioid activity test using an extracted guinea pig ileum preparation, Ke with norBNI; parameters: species or system male Hartley guinea pig; conditions: norBNI added
T4 construct: After sacrificing the guinea pig and extracting the ileum; from tissue; host or cells: guinea pig (male Hartley) ileum, longitudinal muscle
T4 sequence (P41144 whole entry): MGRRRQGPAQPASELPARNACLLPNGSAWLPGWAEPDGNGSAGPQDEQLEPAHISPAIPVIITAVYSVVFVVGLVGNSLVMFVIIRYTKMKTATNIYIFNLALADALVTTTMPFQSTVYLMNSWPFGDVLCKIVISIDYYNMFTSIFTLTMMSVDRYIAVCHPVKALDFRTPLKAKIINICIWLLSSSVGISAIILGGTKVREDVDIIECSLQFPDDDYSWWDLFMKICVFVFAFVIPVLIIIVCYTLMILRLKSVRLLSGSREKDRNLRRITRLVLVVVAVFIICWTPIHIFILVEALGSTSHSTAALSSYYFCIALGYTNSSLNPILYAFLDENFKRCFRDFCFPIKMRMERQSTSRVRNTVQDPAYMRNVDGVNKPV
Procedure: (§1) A male Hartley guinea pig was used in this test. After sacrificing the guinea pig and extracting the ileum, the lumen was washed with nutrient solution and only the longitudinal muscle was isolated. This longitudinal muscle was suspended in a Magnus tube filled with Krebes-Henseleit solution (NaCl 118 mM; KCl 4.7 mM; CaCl2 2.5 mM; KH2 PO4 1.2 mM; NaHCO3 25 mM; MgSO4 1.2 mM; Glucose 10 mM) warmed to 37° C. and ventilated with 5% carbon dioxide and 95% oxygen. Electrical stimulus was performed at 0.1 Hz for 5.0 ms by means of ring-shaped platinum electrodes located above and below. Tissue contractions were recorded on a polygraph using an isometric transducer.
(§2) After adequately washing with nutrient solution and the contraction reaction stabilized, the μ agonist, naloxone, or the κ agonist, norBNI, was added after which the test compound was again cumulatively added after roughly 20 minutes. The Ke value was calculated using the following calculation formula from the difference in the efficacies of both agonists.
(§3) Ke=[Conc. of added agonist]/(IC50 ratio-1)
(§4) IC50 ratio=IC50 in the presence of agonist/IC50 in the absence of agonist

μ receptor [11] = test: Opioid activity test using an extracted guinea pig ileum preparation, Ke with naloxone; parameters: species or system male Hartley guinea pig; conditions: naloxone added
Procedure: as §1, §2, §3, §4

[12] = test system: extracted guinea pig ileum preparation; test: Opioid activity test using an extracted guinea pig ileum preparation (suppression of electrically induced contractions); parameters: species or system male Hartley guinea pig; conditions: Cavia porcellus, electrical stimulus 0.1 Hz, 37° C.
Procedure: as §1, §2

[13] = 0.03 mg/kg, 30 minutes before ischemia
[14] = 0.3 mg/kg, 30 minutes before ischemia
[15] = 3 mg/kg, 30 minutes before ischemia

Row | Structure (SMILES) | Protective action against cytotoxicity caused by glutamic acid (in words) [1] | Ke, norBNI (κ receptor [2]) [nM] | ED50 [3] [µg/kg] | ED50 [4] [µg/kg] | EC50 [5] [nM] | ED (200% urine output) [6] [µg/kg] | ED (500% urine output) [6] [µg/kg] | IC50 [7] [nM] | receptor selectivity of agonist (κ) (κ receptor [2]) | No. of Animals in which Coughing was Suppressed/No. of Animals Tested ([3]; 1 μg/kg) | No. of Animals in which Coughing was Suppressed/No. of Animals Tested ([3]; 3 μg/kg) | No. of Animals in which Coughing was Suppressed/No. of Animals Tested ([3]; 30 μg/kg) | Suppression of defluxion of brain nerve cells caused by ischemia / cerebro-neuroprotective activity (in words) [8] | Ke, NTI (δ receptor) [nM] | Ke, Naloxone (μ receptor [9]) [nM] | No. of Residual Nerve Cells [8, 13] | No. of Residual Nerve Cells [8, 14] | No. of Residual Nerve Cells [8, 15] | further results
1 | CN(C(=O)/C=C/c1ccoc1)[C@@H]1CC[C@@]2(O)[C@H]3Cc4ccc(O)c5c4[C@@]2(CCN3CC2CC2)[C@H]1O5 [Compound 61, 17-cyclopropylmethyl-3,14β-dihydroxy-4,5α-epoxy-6β-[N-methyl-trans-3-(3-furyl)acrylamido]morphinan.cndot.tartrate] | clearly demonstrated action that protects nerve cells from cytotoxicity caused by glutamic acid | 0.164 | 3.7 | 4.4 | 16300 | 3.2 | 157 | 0.42 | – | – | – | – | – | – | – | – | – | – | –
2 | CN(C(=O)/C=C/c1cccc(C(F)(F)F)c1)[C@@H]1CC[C@@]2(O)[C@H]3Cc4ccc(O)c5c4[C@@]2(CCN3CC2CC2)[C@H]1O5 [Compound 60, 17-cyclopropylmethyl-3,14β-dihydroxy-4,5α-epoxy-6β-(N-methyl-3-trifluoromethylcinnamamido)morphinan.cndot.tartrate] | clearly demonstrated action that protects nerve cells from cytotoxicity caused by glutamic acid | 3.20 | 2.6 | 4.6 | 1310 | 14.3 | 1130 | 0.468 | selective agonists for κ receptors | 1/5 | 3/5 | 5/5 | significantly suppress defluxion of brain nerve cells caused by ischemia | 291 | – | – | – | – | No. of Residual Nerve Cells ([8]; 0.03 mg/kg, 1 hour before ischemia): 52.1 ± 14.8; No. of Residual Nerve Cells ([8]; 0.3 mg/kg, 1 hour before ischemia): 148.3 ± 28.5; No. of Residual Nerve Cells ([8]; 3 mg/kg, 1 hour before ischemia): 284.5 ± 7.1
3 | Cc1cccc(/C=C/C(=O)N(C)[C@@H]2CC[C@@]3(O)[C@H]4Cc5ccc(O)c6c5[C@@]3(CCN4CC3CC3)[C@H]2O6)c1 [Compound 69, 17-cyclopropylmethyl-3,14β-dihydroxy-4,5α-epoxy-6β-(N-methyl-3-methylcinnamamido)morphinan.cndot.hydrochloride] | – | 1.95 | 12.5 | 4.9 | – | – | – | 0.32 | selective agonists for κ receptors | 1/5 | 1/5 | 4/5 | significantly suppress defluxion of brain nerve cells caused by ischemia | 64.5 | 1780 | 12.4 ± 3.0 | 43.3 ± 19.1 | 178.3 ± 30.4 | –
4 | CN(C(=O)/C=C/c1cccc([N+](=O)[O-])c1)[C@@H]1CC[C@@]2(O)[C@H]3Cc4ccc(O)c5c4[C@@]2(CCN3CC2CC2)[C@H]1O5 [Compound 104, 17-cyclopropylmethyl-3,14β-dihydroxy-4,5α-epoxy-6β-(N-methyl-3-nitrocinnamamido)morphinan.cndot.tartrate] | clearly demonstrated action that protects nerve cells from cytotoxicity caused by glutamic acid | 1.40 | – | 17 | 5450 | – | – | 0.227 | selective agonists for κ receptors | – | – | – | significantly suppress defluxion of brain nerve cells caused by ischemia | 89 | 185 | 12.0 ± 3.0 | 14.8 ± 1.2 | 106.2 ± 65.6 | –
5 | CN(C(=O)Cc1ccc(Cl)c(Cl)c1)[C@H]1CC[C@@]2(O)[C@H]3Cc4ccc(O)c5c4[C@@]2(CCN3CC2CC2)[C@H]1O5 [Compound 1, 17-cyclopropylmethyl-4,5α-epoxy-3,14β-dihydroxy-6α-(N-methyl-3,4-dichlorophenylacetamido)morphinan] | clearly demonstrated action that protects nerve cells from cytotoxicity caused by glutamic acid | 0.548 | – | 17 | 500 | 2.7 | 45.7 | 0.395 | selective agonists for κ receptors | – | – | – | – | 17.3 | 53 | – | – | – | Ke, norBNI (κ receptor [10]): 0.16 nM; Ke, Naloxone (μ receptor [11]): 650 nM; IC50 [12]: 0.026 nM
